According to paper PMC11292196 (Cancer Research, 2024):
Like-named read-outs stand apart in the source and are kept apart here. Blank lines part the entries; values can stand above or below the compound they belong to.

Columns and labels:
SCaBER cells = experiment: Cell viability assay; format: cell-based; settings: read-out: Cisplatin GI50 (d5), 5-day viability assay
Cal29 cells = experiment: Cell viability assay; format: cell-based; settings: read-out: Cisplatin GI50 (d5), 5-day viability assay
KMBC2 cells = experiment: Cell viability assay; format: cell-based; settings: read-out: Cisplatin GI50 (d5), 5-day viability assay
T24 cells = experiment: Cell viability assay; format: cell-based; settings: read-out: Cisplatin GI50 (d5), 5-day viability assay
BFTC905 cells = experiment: Cell viability assay; format: cell-based; settings: read-out: Cisplatin GI50 (d5), 5-day viability assay
HT1376 cells = experiment: Cell viability assay; format: cell-based
HT1197 cells = experiment: Cell viability assay; format: cell-based; settings: read-out: Cisplatin GI50 (d5), 5-day viability assay
SW1710 cells = experiment: Cell viability assay; format: cell-based; settings: read-out: Cisplatin GI50 (d5), 5-day viability assay
UMUC3 cells = experiment: Cell viability assay; format: cell-based; settings: read-out: Cisplatin GI50 (d5), 5-day viability assay
JMSU1 cells = experiment: Cell viability assay; format: cell-based; settings: read-out: Cisplatin GI50 (d5), 5-day viability assay
RT4 cells = experiment: Cell viability assay; format: cell-based; settings: read-out: Cisplatin GI50 (d5), 5-day viability assay
J82 cells = experiment: Cell viability assay; format: cell-based; settings: read-out: Cisplatin GI50 (d5), 5-day viability assay
TCCSUP cells = experiment: Cell viability assay; format: cell-based; settings: read-out: Cisplatin GI50 (d5), 5-day viability assay
[1] = test system: KARPAS-422 xenograft tumors; experiment: KARPAS-422 xenograft efficacy study; format: in vivo; settings: KARPAS-422 mouse xenograft model; 25 mg/kg, PO, QD
[2] = read-out: GI50, long-term cell viability assay, HT1376 cells, day 18

Compound: N.N.[Cl][Pt][Cl] [Cisplatin]
GI50 (SCaBER cells): 1200 nM
GI50 (Cal29 cells): 3010 nM
GI50 (KMBC2 cells): 3640 nM
GI50 (T24 cells): 810 nM
GI50 (BFTC905 cells): 760 nM
GI50 (HT1376 cells; read-out: Cisplatin GI50 (d5), HT1376, 5-day viability assay): 1950 nM
GI50 (HT1197 cells): 3880 nM
GI50 (SW1710 cells): 2150 nM
GI50 (UMUC3 cells): 350 nM
GI50 (JMSU1 cells): 730 nM
GI50 (RT4 cells): 3050 nM
GI50 (J82 cells): 450 nM
GI50 (TCCSUP cells): 220 nM

GI50 (HT1376 cells; [2]): 73 nM
Compound: Cc1ncccc1-c1cnc(NCc2c(F)ccc3c2CCO3)n2cnnc12 [MAK683]

GI50 (HT1376 cells; [2]): ~5 nM
Compound: COc1cc(C)[nH]c(=O)c1CN1CCc2c(Cl)cc([C@H](OC)C3COC3)c(Cl)c2C1=O [PF-06821497]

Compound: CCN(c1cc(-c2ccc(CN3CCOCC3)cc2)cc(C(=O)NCc2c(C)cc(C)[nH]c2=O)c1C)C1CCOCC1 [Tazemetostat]
tumor response [1]: modest TGI
